The text below walks through data of patent publication EP0640690A1, “Monoclonal antibodies specific for 5-dihydrotestosterone” (ELI LILLY AND COMPANY, priority 1993, dated 1995).

The structures appear in SMILES notation.

Experiment [1] concerns monoclonal antibody MoAb 276-1 (anti-5-dihydrotestosterone, hybridoma ATCC HB 11410). Kind of experiment: competitive ELISA: competition with bound avidin/5-DHT complex for the antibody. The format is binding, mouse. The settings on record: for IC50: concentration inhibiting 50% of antibody binding to immobilized avidin/5-DHT, read-out: IC₅₀. On the procedure: The usual method of quantifying specificity of an antibody is by way of a competitive ELISA assay, a technique which is well known to one of skill in the art. In such an assay the reactivity is determined by binding an avidin/5-DHT complex to a support, such as a well in a microtiter plate, as described infra. A limited amount of anti-5-DHT antibody (such as MoAb 276-1) is then added simultaneously with differing concentrations of 5-dihydrotestosterone, which competes with the bound 5-DHT for the antibody. Unbound antibody is then removed from the wells. The concentration of 5-dihydrotestosterone which inhibits 50% of the binding of the antibody is designated as the IC₅₀. The experiment is run in parallel using testosterone in place of the 5-dihydrotestosterone. The IC₅₀ of the testosterone is then compared with the IC₅₀ of the 5-dihydrotestosterone to give a relative binding affinity.
The most preferred antibody of this invention, MoAb 276-1, has an IC₅₀ of 537 nM for 5-dihydrotestosterone, while an IC₅₀ of 4568 nM was obtained for testosterone. This antibody, therefore, is 8.5 times more specific for 5-dihydrotestosterone than for testosterone. The hybridoma producing the monoclonal antibody MoAb 276-1 is available from the American Type Culture […] (ATCC) in Rockville, Maryland, 20852 under accession number ATCC HB 11410.
In general terms: An ELISA detects its analyte on a solid surface through an enzyme-linked reagent.

The subject of experiment [2] is 5-α-reductase enzyme from a female rat liver preparation. Kind of experiment: 5-α-reductase inhibitor assay: 5-DHT formed from testosterone measured by MoAb 276-1 ELISA. The format is biochemical. The settings on record: concentration inhibiting 100% of activity; testosterone substrate, NADPH, pH 6.5, 37°C, 20 minutes; one experiment. How it is done:
This reaction mixture was incubated at 37°C for 20 minutes. The enzyme was then inactivated by incubating the reaction mixture at 80°C for 10 minutes. […] In additon, serial dilutions of the reaction mixture were made and 100 µl of each of these dilutions was added to separate wells. To each well was added 100 µl (0.35 µg) of MoAb 276-1. This plate was then incubated at 37°C for 2 hours. After this incubation period, the plate was washed four times with phosphate buffered saline (PBS). After the washing, 200 µl of anti-mouse antibody/alkaline phosphatase conjugate was added to each well. This was then incubated at 37°C for 1 hour. After the incubation each well was washed four times with PBS. To each well was then added 200 µl of p-nitrophenylphosphate. This reaction was then incubated for one hour at 37°C. Spectrophotometric measurement of each well was then performed, reading at 410 nm. This measurement provided the baseline activity of 5-α-reductase activity without an inhibitor. […] This compound was prepared as described in U.S. Patent 5,239,075, issued August 24, 1993, which is herein incorporated by reference.

Turning to `C[C@]12CCC(=O)C[C@@H]1CC[C@@H]1[C@@H]2CC[C@]2(C)[C@@H](O)CC[C@@H]12` [5-dihydrotestosterone, 17β-hydroxy-5α-androstan-3-one], the IC50 in experiment [1] is 537 nM. Besides, the “times more specific for 5-dihydrotestosterone than for testosterone” value in experiment [1] (ratio of IC₅₀ of testosterone to IC₅₀ of 5-dihydrotestosterone) is 8.5 times.
`Cc1ccc2c(c1)CC[C@@H]1[C@@H]2CCC(=O)N1C` (racemic) [trans-dl-4,8-dimethyl-1,2,3,4,4a,5,6,10b-octahydrobenzo-[f]quinolin-3-one]: the IC₁₀₀ in experiment [2] came out at 0.3 µM.
Consider `C[C@]12CC[C@H]3[C@@H](CCC4=CC(=O)CC[C@@]43C)[C@@H]1CC[C@@H]2O` [testosterone], for which the IC50 in experiment [1] was 4570 nM.
